Experimental data taken from ChEMBL document CHEMBL4004873, “SAR of amino pyrrolidines as potent and novel protein-protein interaction inhibitors of the PRC2 complex through EED binding” (Bioorg Med Chem Lett, 2017).
pIC50, pKi: −log10 of the molar value. Each block holds one molecule with its values, some of them ahead of it.

How the values were obtained:
[1] = biological target: T1, Polycomb protein EED (Homo sapiens, UniProt O75530); experiment: Inhibition of OG(488) labeled probe binding to GST-tagged EED (unknown origin) after 1 hr by LanthaScreen TR-FRET assay
T1 sequence (O75530 whole entry): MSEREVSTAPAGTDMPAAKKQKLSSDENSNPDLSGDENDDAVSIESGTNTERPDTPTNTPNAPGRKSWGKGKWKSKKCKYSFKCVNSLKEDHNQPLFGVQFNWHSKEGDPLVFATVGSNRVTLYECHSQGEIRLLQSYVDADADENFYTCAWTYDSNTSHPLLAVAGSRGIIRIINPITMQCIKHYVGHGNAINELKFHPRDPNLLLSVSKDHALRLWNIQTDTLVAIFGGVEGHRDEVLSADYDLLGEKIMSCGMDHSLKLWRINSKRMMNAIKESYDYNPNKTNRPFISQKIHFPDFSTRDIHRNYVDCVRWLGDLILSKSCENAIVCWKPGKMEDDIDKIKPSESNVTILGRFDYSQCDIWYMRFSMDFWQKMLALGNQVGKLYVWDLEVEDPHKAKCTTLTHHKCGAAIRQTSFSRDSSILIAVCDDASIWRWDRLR

[2] = Intrinsic clearance in mouse liver microsomes at 0.5 uM by HPLC-MS/MS method; format: ADME, microsome; settings: read-out: CLH
[3] = biological target: T1, Polycomb protein EED; experiment: Inhibition of EED in human G401 cells assessed as reduction in H3K27 trymethylation measured after 6 days by alphaLISA method; format: cell-based
[4] = biological target: T1, Polycomb protein EED; experiment: Inhibition of EED in human OCILY19 cells assessed as reduction in H3K27 trymethylation measured after 6 days by alphaLISA method; format: cell-based
[5] = system: Pfeiffer; experiment: Antiproliferative activity against human Pfeiffer cells after 10 days by celltiter-glo luminescent cell viability Assay; format: functional, cell-based; settings: 240 h
[6] = Permeability of the compound by PAMPA; format: physicochemical; settings: read-out: permeability
[7] = system: Liver; experiment: Unbound intrinsic clearance in mouse liver microsomes at 0.5 uM by HPLC-MS/MS method; format: ADME, microsome

pKi [1]: 6.89 | CLint scaled at 0.5 µM [2]: > 1000 L/h/kg
Compound: CN(C)[C@H]1CN([C@@H]2CCc3cccc(F)c32)C[C@@H]1c1cn(C)c2ccccc12

pKi [1]: 7.64
Compound: CN(C)C(=O)c1cccc2c([C@H]3CN(Cc4c(F)cccc4Br)C[C@@H]3N(C)C)cn(C)c12

pKi [1]: 7.96 | pIC50 [3]: 6.54 | pIC50 [4]: 6.18 | Papp [6]: 1 to 3 ×10⁻⁶ cm/s | CLint scaled at 0.5 µM [2]: > 1000 L/h/kg
Compound: CN(C)[C@H]1CN([C@H]2CCc3cccc(F)c32)C[C@@H]1c1cn(C)c2ccccc12
pIC50 [5]: 5.96

pKi [1]: 7.92 | pIC50 [3]: 5.62 | pIC50 [4]: 5.62 | Papp [6]: 1 to 3 ×10⁻⁶ cm/s | CLint scaled at 0.5 µM [2]: > 1000 L/h/kg
Compound: Cc1cccc(F)c1CN1C[C@H](c2cn(C)c3ccccc23)[C@@H](N(C)C)C1
pIC50 [5]: 5.48

pKi [1]: 6.21
Compound: CN(C)[C@H]1CN([C@H]2COc3cccc(F)c32)C[C@@H]1c1cn(C)c2ccccc12

pKi [1]: 9.54 | pIC50 [3]: 7.48 | pIC50 [4]: 7.30 | CL free [7]: 220 L/h/kg
Compound: CC(=O)N1CCN(c2ccc([C@H]3CN(C4CCc5cccc(F)c54)C[C@@H]3N(C)C)cc2)CC1 (mixture of isomers)
pIC50 [5]: 7.48

Compound: Cc1cccc(F)c1CN1C[C@H](c2cn(C)c3c(N4CCN(C)C(=O)C4)cccc23)[C@@H](N(C)C)C1 (mixture of isomers)
pKi [1]: 9.13 | pIC50 [3]: 6.72 | pIC50 [4]: 7.00 | pIC50 [5]: 7.01

pKi [1]: 9.35 | pIC50 [3]: 6.64 | pIC50 [4]: 6.55 | CL free [7]: 120 L/h/kg
Compound: CN(C)[C@H]1CN(C2CCc3cccc(F)c32)C[C@@H]1C1CCN(c2ccc(C(N)=O)cn2)CC1 (mixture of isomers)
pIC50 [5]: 6.89

Compound: Cc1cccc(F)c1CN1C[C@H](c2cn(C)c3c(C(=O)N4CC(F)C4)cccc23)[C@@H](N(C)C)C1 (mixture of isomers)
pKi [1]: 9.00 | pIC50 [3]: 7.51 | pIC50 [4]: 6.74 | pIC50 [5]: 7.19 | CL free [7]: 1100 L/h/kg

pKi [1]: 8.68 | CL free [7]: 9900 L/h/kg
Compound: Cc1cccc(F)c1CN1C[C@H](c2ccc(N3CCN(c4ccccn4)CC3)cc2)[C@@H](N(C)C)C1 (racemic)

pKi [1]: < 4.30
Compound: CN(C)[C@H]1CN(Cc2nccn2C)C[C@@H]1c1cn(C)c2ccccc12 (racemic)

pKi [1]: 7.31
Compound: CN(C)[C@H]1CN(Cc2c(F)cccc2Br)C[C@@H]1c1ccncc1 (racemic)

pKi [1]: 8.59 | CL free [7]: 225 L/h/kg
Compound: Cc1cccc(F)c1CN1C[C@H](c2ccc(-c3cnn(CC(N)=O)c3)cc2)[C@@H](N(C)C)C1 (racemic)

pKi [1]: 8.34 | CL free [7]: 268 L/h/kg
Compound: Cc1cccc(F)c1CN1C[C@H](c2ccc(C3=CCN(C(=O)CS(C)(=O)=O)CC3)nc2)[C@@H](N(C)C)C1 (racemic)

pKi [1]: 9.19
Compound: Cc1cccc(F)c1CN1C[C@H](C2CCN(c3cnc(C(N)=O)cn3)CC2)[C@@H](N(C)C)C1 (racemic)

pKi [1]: 6.59
Compound: CN(C)[C@H]1CN([C@H]2CCc3ncccc32)C[C@@H]1c1cn(C)c2ccccc12 (racemic)

CLint scaled at 0.5 µM [2]: > 1000 L/h/kg
Compound: COc1ccccc1CN1C[C@H](c2cn(C)c3ccccc23)[C@@H](N(C)C)C1 (racemic)

pKi [1]: 7.89 | pIC50 [3]: 5.39 | pIC50 [4]: 5.08 | Papp [6]: 1 to 3 ×10⁻⁶ cm/s | CLint scaled at 0.5 µM [2]: > 1000 L/h/kg
Compound: CN(C)[C@H]1CN(Cc2c(F)cccc2Br)C[C@@H]1c1cn(C)c2ccccc12 (racemic)
pIC50 [5]: 5.02

pKi [1]: 8.28 | CL free [7]: 276 L/h/kg
Compound: Cc1cccc(F)c1CN1C[C@H](c2cn(CC(=O)N(C)C)c3ncccc23)[C@@H](N(C)C)C1 (racemic)

pKi [1]: 7.25 | CL free [7]: 1300 L/h/kg
Compound: Cc1cccc(F)c1CN1C[C@H](c2ccccc2)[C@@H](N(C)C)C1 (racemic)

pKi [1]: 8.59 | CL free [7]: 170 L/h/kg
Compound: CC(=O)N1CCN(c2ccc([C@H]3CN(Cc4c(C)cccc4F)C[C@@H]3N(C)C)cc2)CC1 (racemic)

pKi [1]: < 4.30
Compound: CCn1cc(CN2C[C@H](c3cn(C)c4ccccc34)[C@@H](N(C)C)C2)c(C)n1 (racemic)

pKi [1]: 7.11
Compound: CN(C)[C@H]1CN([C@H]2CCCc3ccccc32)C[C@@H]1c1cn(C)c2ccccc12 (racemic)

pKi [1]: 7.11
Compound: CN(C)[C@H]1CN(Cc2c(F)cccc2Br)C[C@@H]1c1ccccc1 (racemic)

pKi [1]: 6.64
Compound: CN(C)[C@H]1CN(Cc2c(F)cccc2Br)C[C@@H]1C1CCCCC1 (racemic)

pKi [1]: 7.15
Compound: CN(C)[C@H]1CN(Cc2c(F)cccc2Br)C[C@@H]1C1CC1 (racemic)

pKi [1]: < 4.30
Compound: CN(C)[C@H]1CN(Cc2ccn3ccnc3c2)C[C@@H]1c1cn(C)c2ccccc12 (racemic)

pKi [1]: 7.35
Compound: CN(C)[C@H]1CN([C@H]2CCc3ccccc32)C[C@@H]1c1cn(C)c2ccccc12 (racemic)

pKi [1]: 7.74 | CL free [7]: 97 L/h/kg
Compound: Cc1cccc(F)c1CN1C[C@H](c2ccc(C(=O)N(C)C)cc2)[C@@H](N(C)C)C1 (racemic)

Compound: CN(C)[C@H]1CN(Cc2c(F)cccc2Cl)C[C@@H]1c1cn(C)c2ccccc12 (racemic)
pKi [1]: 7.28 | pIC50 [3]: 5.16 | pIC50 [4]: < 5.00 | pIC50 [5]: 5.48 | Papp [6]: 1 to 3 ×10⁻⁶ cm/s | CLint scaled at 0.5 µM [2]: > 1000 L/h/kg

pKi [1]: 6.42
Compound: C[C@H]1CN(Cc2c(F)cccc2Br)C[C@@H]1N(C)C (racemic)

pKi [1]: 5.82 | CLint scaled at 0.5 µM [2]: > 1000 L/h/kg
Compound: CN(C)[C@H]1CN(Cc2ccccc2)C[C@@H]1c1cn(C)c2ccccc12 (racemic)

pKi [1]: 6.48 | CLint scaled at 0.5 µM [2]: > 1000 L/h/kg
Compound: CN(C)[C@H]1CN(Cc2ccccc2F)C[C@@H]1c1cn(C)c2ccccc12 (racemic)

pKi [1]: 6.80 | CLint scaled at 0.5 µM [2]: > 1000 L/h/kg
Compound: Cc1ccc(F)c(CN2C[C@H](c3cn(C)c4ccccc34)[C@@H](N(C)C)C2)c1 (racemic)

pKi [1]: 7.23
Compound: CN(C)[C@H]1CN(Cc2c(F)cccc2Br)C[C@@H]1C1CCOCC1 (racemic)

pKi [1]: < 4.30
Compound: Cc1nc2ncccn2c1CN1C[C@H](c2cn(C)c3ccccc23)[C@@H](N(C)C)C1 (racemic)
